Test results published in the supplement of paper PMC10307832.

Legend:
Experiment in all cases: relative viability (nuclei count vs DMSO), 5 days (fraction); higher = more cells survive
Shikonin + Palbociclib = compound: CC(C)=CC[C@@H](O)C1=CC(=O)c2c(O)ccc(O)c2C1=O [Shikonin] + CC(=O)c1c(C)c2cnc(Nc3ccc(N4CCNCC4)cn3)nc2n(C2CCCC2)c1=O [Palbociclib] (partner 0.5 µM)
How it was run: (§1)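 Relative viability divides the nuclei count in treated wells by that in vehicle wells. Lung cancer cell lines were seeded in 1536-well plates, dosed by pin tool the next day, and fixed and stained after 5 days in one step with final 0.05% Triton X-100, 1% formaldehyde and 1 ug/ml Hoechst. Dosing was a single drug or a fixed anchor-drug dose plus five library-drug doses (not always all listed) in √10 steps, and values are medians of duplicate plates imaged at 4×.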

Shikonin + Pemetrexed = compound: CC(C)=CC[C@@H](O)C1=CC(=O)c2c(O)ccc(O)c2C1=O [Shikonin] + Nc1nc2[nH]cc(CCc3ccc(C(=O)N[C@@H](CCC(=O)O)C(=O)O)cc3)c2c(=O)[nH]1 [Pemetrexed] (partner 0.2 µM)
How it was run: as §1

[1] = compound: CC(C)N(CCCNC(=O)Nc1ccc(C(C)(C)C)cc1)C[C@H]1O[C@@H](n2ccc3c(N)ncnc32)[C@H](O)[C@@H]1O + Nc1ncn([C@H]2C[C@H](O)[C@@H](CO)O2)c(=O)n1 [Decitabine] (partner 2 µM)
How it was run: as §1

[2] = compound: CC(C)N(CCCNC(=O)Nc1ccc(C(C)(C)C)cc1)C[C@H]1O[C@@H](n2ccc3c(N)ncnc32)[C@H](O)[C@@H]1O + Cc1nc(NC(=O)N2CCC[C@H]2C(N)=O)sc1-c1ccnc(C(C)(C)C(F)(F)F)c1 [Alpelisib] (partner 2 µM)
How it was run: as §1

Row | Cell Line | relative viability (Shikonin + Palbociclib; first compound 0.01 µM) | relative viability (Shikonin + Palbociclib; first compound 0.1 µM) | relative viability (Shikonin + Palbociclib; first compound 0.3162 µM) | relative viability (Shikonin + Palbociclib; first compound 1 µM) | relative viability (Shikonin + Pemetrexed; first compound 0.01 µM) | relative viability (Shikonin + Pemetrexed; first compound 0.1 µM) | relative viability (Shikonin + Pemetrexed; first compound 0.3162 µM) | relative viability (Shikonin + Pemetrexed; first compound 1 µM) | relative viability ([1]; first compound 0.08 µM) | relative viability ([1]; first compound 0.253 µM) | relative viability ([1]; first compound 0.8 µM) | relative viability ([1]; first compound 2.53 µM) | relative viability ([1]; first compound 8 µM) | relative viability ([2]; first compound 0.08 µM) | relative viability ([2]; first compound 0.253 µM) | relative viability ([2]; first compound 0.8 µM) | relative viability ([2]; first compound 2.53 µM) | relative viability ([2]; first compound 8 µM)
1 | HCC-78 | 0.459 | 0.481 | 0.461 | 0.413 | 0.91 | 0.844 | 0.941 | 0.893 | 0.783 | 0.667 | 0.667 | 0.707 | 0.777 | 0.272 | 0.289 | 0.323 | 0.334 | 0.315
2 | IA-LM | – | – | – | – | – | – | – | – | – | – | – | – | – | 0.667 | 0.759 | 0.787 | 0.701 | 0.723
3 | NCI-H441 | 0.225 | 0.219 | 0.225 | 0.231 | 0.282 | 0.223 | 0.252 | 0.266 | 0.278 | 0.251 | – | 0.218 | 0.252 | – | 0.653 | 0.88 | 0.677 | 0.712
4 | NCI-H322M | 0.479 | 0.446 | 0.477 | 0.489 | 0.575 | 0.591 | 0.6 | 0.777 | 0.698 | 0.695 | 0.723 | 0.689 | 0.641 | 0.732 | 0.775 | 0.766 | 0.829 | 0.829
5 | NCI-H520 | 0.191 | 0.206 | 0.229 | 0.208 | 0.801 | 0.784 | 0.689 | 0.604 | 0.531 | 0.469 | 0.405 | 0.471 | 0.492 | 0.796 | 0.879 | 0.758 | 0.789 | 0.861
6 | COR-L23 | 0.26 | 0.299 | 0.306 | 0.29 | 0.188 | 0.19 | 0.208 | 0.206 | 0.46 | 0.33 | 0.467 | 0.48 | 0.456 | 0.74 | 0.765 | 0.791 | 0.955 | 0.759
7 | NCI-H2126 | 0.362 | 0.408 | 0.379 | 0.349 | 0.758 | 0.716 | 0.777 | 0.656 | 0.568 | 0.591 | 0.557 | 0.551 | 0.508 | 0.734 | 0.712 | 0.78 | 0.783 | 0.722
8 | LC-2-ad | 0.533 | 0.483 | 0.441 | 0.511 | 0.297 | 0.273 | 0.269 | 0.282 | 0.776 | 0.857 | 0.688 | 0.728 | 0.768 | 0.802 | 0.83 | 0.992 | 0.823 | 0.806
9 | NCI-H1915 | 0.535 | 0.521 | 0.525 | 0.645 | 0.442 | 0.684 | 0.517 | 0.449 | 0.274 | 0.289 | 0.269 | 0.25 | 0.267 | 1.07 | 1.05 | 0.974 | 1.05 | 0.968
10 | NCI-H1793 | 0.283 | 0.321 | 0.306 | 0.345 | 0.808 | 1.05 | 0.798 | 1.11 | 0.481 | – | 0.77 | 0.537 | 0.359 | 0.554 | – | 0.715 | 0.527 | 0.669
11 | NCI-H727 | 0.713 | 0.603 | 0.678 | 0.67 | – | – | – | – | 0.907 | 0.687 | 0.885 | 0.905 | 0.973 | 0.448 | 0.511 | 0.612 | 0.547 | 0.673
12 | NCI-H2228 | 0.812 | 0.939 | 0.754 | 0.729 | 0.314 | 0.355 | 0.38 | 0.355 | – | – | – | – | – | 0.782 | – | 0.796 | 0.76 | 0.745
13 | ChaGo-K-1 | 0.977 | 1.09 | 0.968 | 0.968 | 0.266 | 0.279 | 0.266 | 0.258 | 0.468 | 0.545 | 0.494 | 0.522 | 0.505 | – | – | – | – | –
14 | NCI-H2342 | 0.499 | 0.465 | 0.526 | 0.537 | 0.808 | 0.852 | 0.809 | 0.804 | 0.667 | 0.649 | 0.655 | 0.815 | 0.713 | – | – | – | – | –
15 | NCI-H1299 | – | – | – | – | – | – | – | – | – | – | – | – | – | 1.03 | 1.03 | 1.07 | 1.02 | 1.04
16 | NCI-H1650 | 0.395 | 0.448 | 0.247 | 0.319 | 0.35 | 0.403 | 0.331 | 0.274 | 0.368 | 0.482 | 0.262 | 0.432 | 0.357 | – | – | – | – | –
17 | SW 900 | 0.563 | 0.559 | 0.547 | 0.542 | 0.422 | 0.548 | 0.468 | 0.535 | 0.387 | 0.43 | – | 0.42 | 0.404 | – | – | – | – | –
18 | NCI-H1648 | 0.282 | – | 0.273 | 0.238 | 0.793 | – | 0.979 | 0.742 | 0.494 | 0.464 | 0.446 | 0.398 | 0.548 | – | – | – | – | –
19 | NCI-H522 | 1.03 | 1.28 | 0.936 | 1.17 | 0.937 | 1 | 1.3 | 1.22 | 0.64 | 0.737 | 0.71 | 0.729 | 0.696 | – | – | – | – | –
20 | A549 | – | – | – | – | – | – | – | – | 0.278 | 0.292 | 0.291 | 0.215 | 0.189 | 0.68 | 0.848 | 0.948 | 0.723 | 0.659
21 | NCI-H596 | – | – | – | – | 0.502 | 0.536 | 0.414 | 0.475 | 1.03 | 0.975 | 1.03 | 1.19 | 0.988 | 0.567 | 0.42 | 0.54 | 0.434 | 0.482
22 | NCI-H1563 | – | – | – | – | 0.769 | 0.846 | 0.897 | 0.845 | – | – | – | – | – | 0.991 | 0.907 | 1.09 | 0.973 | 0.991
23 | ABC-1 | 0.904 | 0.592 | 0.892 | 0.586 | – | – | – | – | 1.03 | 1.23 | – | 1.15 | 1.32 | 0.989 | 1.2 | – | 1.12 | 1.07
